Reference: ChEMBL document CHEMBL5661982 (Mol Cancer Ther, 2012)

How the values were obtained:
[1] = biological target: Hepatocyte growth factor receptor (Canis lupus familiaris, UniProt Q75ZY9); test: Inhibition of c-Met phosphorylation in HGF-stimulated dog MDCK cells incubated for 1 hr by sandwich ELISA analysis
[2] = biological target: Hepatocyte growth factor receptor (Mus musculus, UniProt P16056); test: Inhibition of c-Met phosphorylation in HGF-stimulated mIMCD3 cells incubated for 1 hr by sandwich ELISA analysis
[3] = biological target: Macrophage-stimulating protein receptor (Mus musculus, UniProt Q62190); test: Inhibition of Ron expressed in mouse NIH3T3 cells assessed as reduction in MSP-stimulated RON phosphorylation incubated for 1 hr by sandwich ELISA analysis
[4] = biological target: Tyrosine-protein kinase receptor UFO (Homo sapiens, UniProt P30530); test: Inhibition of AXL expressed in HEK293 cells assessed as reduction in Gas6-stimulated AXL phosphorylation incubated for 1 hr by sandwich ELISA analysis
[5] = biological target: Tyrosine-protein kinase Mer (Homo sapiens, UniProt Q12866); test: Inhibition of MER expressed in HEK293 cells assessed as reduction in Gas6-stimulated MER phosphorylation incubated for 1 hr by sandwich ELISA analysis
[6] = biological target: Insulin receptor (Homo sapiens, UniProt P06213); test: Inhibition of Insulin receptor expressed in HEK293 cells assessed as reduction insulin-stimulated INSR phosphorylation incubated for 1 hr by sandwich ELISA analysis
[7] = biological target: Insulin-like growth factor 1 receptor (Mus musculus, UniProt Q60751); test: Inhibition of IGF1R expressed in mouse NIH3T3 cells assessed as reduction in IGF-stimulated IGF1R phosphorylation incubated for 1 hr by sandwich ELISA analysis
[8] = biological target: SLC34A2-ROS1 (Homo sapiens, UniProt P08922); test: Inhibition of SLC34A2-Ros phosphorylation in human HCC87 cells incubated for 1 hr by sandwich ELISA analysis
[9] = Inhibition of human c-Met V1092I mutant expressed in mouse NIH3T3 cells assessed as reduction in HGF-stimulated c-Met phosphorylation incubated for 1 hr by ELISA analysis; conditions: NIH3T3, 1 h
[10] = Inhibition of c-Met R988C mutant phosphorylation in human NCI-H69 cells assessed as reduction in HGF-stimulated c-Met phosphorylation incubated for 1 hr by ELISA analysis; conditions: NCI-H69, 1 h
[11] = Inhibition of c-Met T11010I mutant phosphorylation in human HOP-92 cells assessed as reduction in HGF-stimulated c-Met phosphorylation incubated for 1 hr by ELISA analysis; conditions: HOP-92, 1 h
[12] = tested on: GTL 16 cell line; test: Antiproliferative activity against human GTL 16 cells over expressing c-Met assessed as reduction in cell viability after 48 to 72 hrs by MTT assay
[13] = tested on: NCI-H1993; test: Antiproliferative activity against human NCI-H1993 cells over expressing c-Met assessed as reduction in cell viability after 48 to 72 hrs by MTT assay
[14] = tested on: COLO 205; test: Antiproliferative activity against human COLO 205 cells over expressing c-Met assessed as reduction in cell viability after 48 to 72 hrs by MTT assay
[15] = tested on: HT-29; test: Antiproliferative activity against human HT-29 cells over expressing c-Met assessed as reduction in cell viability after 48 to 72 hrs by MTT assay
[16] = tested on: SW-620; test: Antiproliferative activity against human SW620 cells over expressing c-Met assessed as reduction in cell viability after 48 to 72 hrs by MTT assay
[17] = tested on: HCT-116; test: Antiproliferative activity against human HCT-116 cells over expressing c-Met assessed as reduction in cell viability after 48 to 72 hrs by MTT assay
[18] = tested on: DLD-1; test: Antiproliferative activity against human DLD-1 cells over expressing c-Met assessed as reduction in cell viability after 48 to 72 hrs by MTT assay
[19] = tested on: MDA-MB-231; test: Antiproliferative activity against human MDA-MB-231 cells over expressing c-Met assessed as reduction in cell viability after 48 to 72 hrs by MTT assay
[20] = tested on: MDA-MB-468; test: Antiproliferative activity against human MDA-MB-468 cells over expressing c-Met assessed as reduction in cell viability after 48 to 72 hrs by MTT assay
[21] = tested on: HCC1143; test: Antiproliferative activity against human HCC1143 cells over expressing c-Met assessed as reduction in cell viability after 48 to 72 hrs by MTT assay
[22] = tested on: A549; test: Antiproliferative activity against human A549 cells over expressing c-Met assessed as reduction in cell viability after 48 to 72 hrs by MTT assay
[23] = tested on: U-87 MG; test: Antiproliferative activity against human U-87 MG cells over expressing c-Met assessed as reduction in cell viability after 48 to 72 hrs by MTT assay
[24] = tested on: PC-3; test: Antiproliferative activity against human PC-3 cells over expressing c-Met assessed as reduction in cell viability after 48 to 72 hrs by MTT assay
[25] = tested on: HT-29; test: Inhibition of cell invasion in HGF-stimulated human HT-29 cells over expressing c-Met incubated for 48 hrs by Matrigel based analysis; conditions: HT-29, 48 h
[26] = tested on: NCI-H441; test: Inhibition of cell migration in HGF-stimulated human NCI-H441 cells over expressing c-Met incubated for 48 hrs by Matrigel based analysis; conditions: NCI-H441, 48 h
[27] = tested on: NCI-H441; test: Inhibition of cell invasion in HGF-stimulated human NCI-H441 cells over expressing c-Met incubated for 48 hrs by Matrigel based analysis; conditions: NCI-H441, 48 h
[28] = tested on: HUVEC; test: Antiproliferative activity against HGF-stimulated HUVEC cells assessed as reduction in cell viability after 48 to 72 hrs by MTT assay; conditions: Homo sapiens
[29] = tested on: HUVEC; test: Inhibition of cell invasion in HGF-stimulated HUVEC cells incubated for 48 hrs by Matrigel based analysis; conditions: Homo sapiens
[30] = tested on: GTL 16 cell line; test: Antitumor activity against human GTL 16 cells xenografted in athymic nu/nu mouse assessed as tumor growth inhibition at 1 mg/kg, po administered for 16 days relative to control; conditions: GTL 16, po, 384 h, read-out: TGI
[31] = tested on: GTL 16 cell line; test: Antitumor activity against human GTL 16 cells xenografted in athymic nu/nu mouse assessed as tumor growth inhibition at 3 mg/kg, po administered for 16 days relative to control; conditions: GTL 16, po, 384 h, read-out: TGI
[32] = tested on: GTL 16 cell line; test: Antitumor activity against human GTL 16 cells xenografted in athymic nu/nu mouse assessed as tumor growth inhibition at 10 mg/kg, po administered for 16 days relative to control; conditions: GTL 16, po, 384 h, read-out: TGI
[33] = tested on: NCI-H292; test: Antitumor activity against human NCI-H292 cells xenografted in athymic nu/nu mouse assessed as tumor growth inhibition at 50 mg/kg/day, po for 31 days relative to control; conditions: 744 h, read-out: TGI

Sequence of Insulin-like growth factor 1 receptor (Q60751 31-737 limits assumed): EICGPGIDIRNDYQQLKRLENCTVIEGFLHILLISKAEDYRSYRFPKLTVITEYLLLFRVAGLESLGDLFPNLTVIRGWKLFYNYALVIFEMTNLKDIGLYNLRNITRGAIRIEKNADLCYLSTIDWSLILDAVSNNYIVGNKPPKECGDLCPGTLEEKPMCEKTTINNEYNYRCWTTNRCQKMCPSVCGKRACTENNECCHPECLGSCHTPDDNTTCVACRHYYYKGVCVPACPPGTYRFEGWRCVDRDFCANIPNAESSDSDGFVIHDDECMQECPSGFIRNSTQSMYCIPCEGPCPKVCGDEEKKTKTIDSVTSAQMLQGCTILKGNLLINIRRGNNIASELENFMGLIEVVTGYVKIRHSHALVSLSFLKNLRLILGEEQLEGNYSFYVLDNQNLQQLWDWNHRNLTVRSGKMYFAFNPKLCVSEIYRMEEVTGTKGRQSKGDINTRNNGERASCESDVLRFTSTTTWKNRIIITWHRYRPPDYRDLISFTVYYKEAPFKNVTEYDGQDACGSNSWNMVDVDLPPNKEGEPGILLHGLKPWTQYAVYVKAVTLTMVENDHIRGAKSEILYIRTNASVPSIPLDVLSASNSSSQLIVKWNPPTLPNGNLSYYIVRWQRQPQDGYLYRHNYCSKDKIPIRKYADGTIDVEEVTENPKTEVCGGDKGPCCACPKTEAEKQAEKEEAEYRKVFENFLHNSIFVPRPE
Sequence of Insulin-like growth factor 1 receptor (Q60751 742-1373 limits assumed): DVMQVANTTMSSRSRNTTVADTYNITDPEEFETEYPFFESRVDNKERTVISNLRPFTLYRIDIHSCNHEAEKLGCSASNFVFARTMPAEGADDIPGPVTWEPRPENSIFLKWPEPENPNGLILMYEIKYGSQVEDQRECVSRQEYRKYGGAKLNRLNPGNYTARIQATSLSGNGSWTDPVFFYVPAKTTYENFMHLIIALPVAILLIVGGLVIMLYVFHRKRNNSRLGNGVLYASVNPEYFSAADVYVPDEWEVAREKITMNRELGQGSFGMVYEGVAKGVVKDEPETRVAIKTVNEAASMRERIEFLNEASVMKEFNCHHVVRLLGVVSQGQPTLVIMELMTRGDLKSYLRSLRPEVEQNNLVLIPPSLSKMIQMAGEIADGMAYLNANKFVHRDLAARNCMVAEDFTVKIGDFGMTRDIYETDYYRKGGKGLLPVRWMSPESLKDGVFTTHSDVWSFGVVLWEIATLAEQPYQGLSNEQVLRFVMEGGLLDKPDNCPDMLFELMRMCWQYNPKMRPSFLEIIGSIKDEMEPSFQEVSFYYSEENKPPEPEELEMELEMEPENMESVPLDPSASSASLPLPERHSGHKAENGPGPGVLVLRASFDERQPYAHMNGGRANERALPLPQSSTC
Sequence of Tyrosine-protein kinase Mer (Q12866 whole entry): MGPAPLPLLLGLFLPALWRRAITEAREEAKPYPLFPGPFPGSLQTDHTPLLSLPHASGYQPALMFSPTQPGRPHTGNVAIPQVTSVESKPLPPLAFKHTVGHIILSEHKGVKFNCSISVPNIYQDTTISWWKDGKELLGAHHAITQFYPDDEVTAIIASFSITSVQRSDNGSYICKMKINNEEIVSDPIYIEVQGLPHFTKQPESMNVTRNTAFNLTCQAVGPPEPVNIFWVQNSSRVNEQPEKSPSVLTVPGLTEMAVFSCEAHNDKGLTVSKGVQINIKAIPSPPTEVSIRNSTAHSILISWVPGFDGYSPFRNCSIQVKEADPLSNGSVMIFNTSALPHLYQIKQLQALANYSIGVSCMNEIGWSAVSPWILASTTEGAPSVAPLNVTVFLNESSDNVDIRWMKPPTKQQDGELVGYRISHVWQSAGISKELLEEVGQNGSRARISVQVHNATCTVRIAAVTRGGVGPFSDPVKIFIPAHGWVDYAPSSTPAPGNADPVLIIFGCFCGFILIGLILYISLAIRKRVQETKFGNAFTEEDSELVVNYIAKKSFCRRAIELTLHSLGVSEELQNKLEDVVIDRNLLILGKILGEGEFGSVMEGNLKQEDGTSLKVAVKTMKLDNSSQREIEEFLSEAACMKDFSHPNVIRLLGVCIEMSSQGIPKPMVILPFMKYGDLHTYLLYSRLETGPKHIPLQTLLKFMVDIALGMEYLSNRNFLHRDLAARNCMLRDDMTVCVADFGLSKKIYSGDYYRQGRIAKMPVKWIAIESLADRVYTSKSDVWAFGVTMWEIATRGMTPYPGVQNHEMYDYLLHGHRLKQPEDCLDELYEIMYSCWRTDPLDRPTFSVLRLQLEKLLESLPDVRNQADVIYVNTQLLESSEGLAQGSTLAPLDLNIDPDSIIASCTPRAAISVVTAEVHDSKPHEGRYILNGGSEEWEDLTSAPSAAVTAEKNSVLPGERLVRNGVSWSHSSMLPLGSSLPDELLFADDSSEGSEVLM
Sequence of Insulin receptor (P06213 28-758 limits assumed): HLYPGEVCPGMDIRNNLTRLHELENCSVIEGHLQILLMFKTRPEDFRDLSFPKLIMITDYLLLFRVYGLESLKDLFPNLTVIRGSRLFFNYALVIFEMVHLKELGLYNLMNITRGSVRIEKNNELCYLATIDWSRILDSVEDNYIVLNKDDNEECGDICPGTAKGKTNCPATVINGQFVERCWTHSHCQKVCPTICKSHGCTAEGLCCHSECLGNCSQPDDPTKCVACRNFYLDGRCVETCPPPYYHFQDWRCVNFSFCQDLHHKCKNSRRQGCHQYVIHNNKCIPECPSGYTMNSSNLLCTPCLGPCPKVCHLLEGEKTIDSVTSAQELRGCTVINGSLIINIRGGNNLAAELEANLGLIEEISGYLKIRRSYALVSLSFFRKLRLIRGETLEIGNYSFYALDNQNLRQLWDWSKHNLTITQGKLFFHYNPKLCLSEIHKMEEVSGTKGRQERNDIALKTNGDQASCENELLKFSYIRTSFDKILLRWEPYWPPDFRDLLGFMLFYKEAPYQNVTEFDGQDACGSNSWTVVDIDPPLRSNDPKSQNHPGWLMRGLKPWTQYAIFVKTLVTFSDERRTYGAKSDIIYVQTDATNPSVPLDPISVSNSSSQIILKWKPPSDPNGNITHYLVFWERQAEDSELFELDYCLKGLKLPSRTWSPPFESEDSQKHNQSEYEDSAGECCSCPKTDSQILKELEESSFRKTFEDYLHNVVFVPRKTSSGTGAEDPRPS
Sequence of Insulin receptor (P06213 763-1382 limits assumed): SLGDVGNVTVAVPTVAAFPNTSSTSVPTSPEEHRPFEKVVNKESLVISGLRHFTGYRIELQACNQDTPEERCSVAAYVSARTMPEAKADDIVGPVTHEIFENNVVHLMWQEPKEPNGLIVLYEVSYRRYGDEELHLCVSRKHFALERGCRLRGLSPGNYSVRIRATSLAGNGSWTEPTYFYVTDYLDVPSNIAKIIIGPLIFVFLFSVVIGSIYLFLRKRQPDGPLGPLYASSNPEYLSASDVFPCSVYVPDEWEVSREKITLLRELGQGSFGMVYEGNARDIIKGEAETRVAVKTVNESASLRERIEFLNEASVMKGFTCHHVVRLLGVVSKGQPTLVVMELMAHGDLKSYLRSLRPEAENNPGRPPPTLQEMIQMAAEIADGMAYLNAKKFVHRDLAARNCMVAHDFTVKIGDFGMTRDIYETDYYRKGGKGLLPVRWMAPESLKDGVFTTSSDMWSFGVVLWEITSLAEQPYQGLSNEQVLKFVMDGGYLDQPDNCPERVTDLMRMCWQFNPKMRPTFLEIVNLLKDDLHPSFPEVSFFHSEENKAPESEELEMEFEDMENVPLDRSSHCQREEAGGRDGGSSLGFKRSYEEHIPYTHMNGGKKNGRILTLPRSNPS
Sequence of Hepatocyte growth factor receptor (Canis lupus familiaris, UniProt Q75ZY9) (Q75ZY9 whole entry): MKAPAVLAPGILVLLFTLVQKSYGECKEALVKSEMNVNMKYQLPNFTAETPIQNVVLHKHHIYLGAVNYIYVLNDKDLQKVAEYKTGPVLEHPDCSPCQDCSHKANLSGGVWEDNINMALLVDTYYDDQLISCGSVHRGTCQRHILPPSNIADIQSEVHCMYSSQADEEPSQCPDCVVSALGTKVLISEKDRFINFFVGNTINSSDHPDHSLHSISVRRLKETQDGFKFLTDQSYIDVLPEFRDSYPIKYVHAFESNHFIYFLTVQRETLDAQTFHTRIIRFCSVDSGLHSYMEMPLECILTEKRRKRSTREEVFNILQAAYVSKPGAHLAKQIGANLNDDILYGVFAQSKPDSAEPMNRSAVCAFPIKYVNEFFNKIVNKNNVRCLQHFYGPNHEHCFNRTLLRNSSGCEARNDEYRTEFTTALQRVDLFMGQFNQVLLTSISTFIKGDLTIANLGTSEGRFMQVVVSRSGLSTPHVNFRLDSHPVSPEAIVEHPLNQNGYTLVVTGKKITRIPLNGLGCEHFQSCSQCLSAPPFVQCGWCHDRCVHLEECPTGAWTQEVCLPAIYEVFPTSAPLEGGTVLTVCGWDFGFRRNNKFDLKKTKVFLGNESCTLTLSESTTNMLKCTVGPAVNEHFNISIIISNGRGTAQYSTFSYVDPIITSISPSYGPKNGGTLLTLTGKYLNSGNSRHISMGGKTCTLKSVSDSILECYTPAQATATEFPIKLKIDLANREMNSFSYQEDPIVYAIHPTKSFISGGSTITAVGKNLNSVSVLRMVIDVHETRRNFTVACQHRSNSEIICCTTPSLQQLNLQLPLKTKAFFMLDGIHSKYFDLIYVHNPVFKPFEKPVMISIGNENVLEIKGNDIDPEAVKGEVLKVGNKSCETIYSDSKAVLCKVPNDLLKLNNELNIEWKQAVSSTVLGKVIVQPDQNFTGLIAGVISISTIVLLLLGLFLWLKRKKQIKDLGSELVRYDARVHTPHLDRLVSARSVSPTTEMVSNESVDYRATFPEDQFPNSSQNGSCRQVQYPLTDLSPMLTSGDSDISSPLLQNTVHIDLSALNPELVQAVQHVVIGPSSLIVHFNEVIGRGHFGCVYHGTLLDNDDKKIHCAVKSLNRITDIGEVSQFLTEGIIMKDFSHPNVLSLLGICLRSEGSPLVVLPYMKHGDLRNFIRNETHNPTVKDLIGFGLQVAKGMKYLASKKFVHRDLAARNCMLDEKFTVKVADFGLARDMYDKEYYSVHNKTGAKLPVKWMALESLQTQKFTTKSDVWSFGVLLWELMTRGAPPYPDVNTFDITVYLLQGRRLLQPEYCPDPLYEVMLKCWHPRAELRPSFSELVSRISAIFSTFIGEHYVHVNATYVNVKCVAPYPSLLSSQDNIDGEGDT

Q: For `OCCn1cc(-c2cnc3nnn(Cc4ccc5ncccc5c4)c3n2)cn1` [PF-04217903], which IC50 [1] is on record?
A: 9.5 nM

Q: What about the IC50 [2] of the same molecule?
A: 6.9 nM

Q: What about the IC50 [3] of the same molecule?
A: > 10000 nM

Q: And the IC50 [4]?
A: > 10000 nM

Q: What about the IC50 [5] of the same molecule?
A: > 10000 nM

Q: And the IC50 [6]?
A: > 10000 nM

Q: And the IC50 [7]?
A: > 10000 nM

Q: And the IC50 [8]?
A: > 10000 nM

Q: And the IC50 [9]?
A: 16 nM

Q: And the IC50 [10]?
A: 6.4 nM

Q: And the IC50 [11]?
A: 6.7 nM

Q: And the IC50 [12]?
A: 12 nM

Q: What about the IC50 [13] of the same molecule?
A: 30 nM

Q: What about the IC50 [14] of the same molecule?
A: > 10000 nM

Q: What about the IC50 [15] of the same molecule?
A: > 10000 nM

Q: What about the IC50 [16] of the same molecule?
A: > 10000 nM

Q: And the IC50 [17]?
A: > 10000 nM

Q: What about the IC50 [18] of the same molecule?
A: > 10000 nM

Q: And the IC50 [19]?
A: > 10000 nM

Q: And the IC50 [20]?
A: > 10000 nM

Q: What about the IC50 [21] of the same molecule?
A: > 10000 nM

Q: What about the IC50 [22] of the same molecule?
A: > 10000 nM

Q: What about the IC50 [23] of the same molecule?
A: > 10000 nM

Q: What about the IC50 [24] of the same molecule?
A: > 10000 nM

Q: What about the IC50 [25] of the same molecule?
A: 7 nM

Q: What about the IC50 [26] of the same molecule?
A: 11 nM

Q: What about the IC50 [27] of the same molecule?
A: 12.5 nM

Q: What about the IC50 [28] of the same molecule?
A: 12.3 nM

Q: What about the IC50 [29] of the same molecule?
A: 27 nM

Q: What about the inhibition in vivo at 1 mg/kg [30] of the same molecule?
A: 64%

Q: And the inhibition in vivo at 3 mg/kg [31]?
A: 74%

Q: And the inhibition in vivo at 10 mg/kg [32]?
A: 90%

Q: And the inhibition in vivo at 50 mg/kg/day [33]?
A: 39%
